# According to PubChem BioAssay AID493240 (Broad Institute, 2011):
# System: SK-MEL-5 viability, ATP luminescence (CellTiter-Glo), 24 h
# Experiment: cytotoxicity in parental SK-MEL-5 melanoma cells – cell-based, CellTiter-Glo, cherry-picked, set 3, orthogonal assay for MITF inhibitor project, dose response (AID 493240)
row,Structure (SMILES),AC50
1,CC(=O)c1c(C)oc2c1C(=O)c1ccccc1C2=O,7.62 µM
2,Cc1ccc(C#CC[N+]2(CC#Cc3ccc(C)cc3)CCCCC2)cc1,16 µM
3,O=C(N/N=C/c1ccc(F)cc1)c1c(O)c2ccccc2[nH]c1=O,26.9 µM
4,CCOC(=O)CCc1ccc(NC(=O)/C=C/c2ccc([N+](=O)[O-])o2)cc1,28.4 µM
5,COc1ccc(-c2c[n+](CC(=O)OC3CC(C)CCC3C(C)C)c3n2CCC3)cc1 (stereo not drawn),14.5 µM
6,C#CC(=O)N(c1ccc(OC)c(OC)c1)C(C(=O)NC1CCCC1)c1cccs1 (stereo not drawn),22.1 µM
7,CC1CCC(C(C)C)C(OC(=O)Cn2c(-c3ccc(Br)cc3)[n+](C)c3ccccc32)C1 (stereo not drawn),15.2 µM
8,CC1CCC(C(C)C)C(OC(=O)Cn2c(-c3ccccc3)[n+](C)c3ccccc32)C1 (stereo not drawn),5.45 µM
9,Cc1ccccc1-c1nc(-c2ccccn2)no1,20.7 µM
10,Cc1cc(NC(=O)c2cncc(Br)c2)ccc1NC(=O)c1cc2ccccc2o1,21.3 µM
11,CCCCC[n+]1ccn(C2=C([O-])c3ccccc3C(=O)/C2=N\S(=O)(=O)c2ccccc2)c1,15.5 µM
12,CCN(CC)CCNC(=O)c1c(C)n(-c2ccccc2)c2cc(Br)c(OC)cc12,19.8 µM
13,COc1ccc2nc(C)cc(NCc3cccc(C(F)(F)F)c3)c2c1,27.9 µM
14,Cc1[nH]c2ccccc2c1C(=O)CCl,22.1 µM
15,COc1ccccc1C(=O)Nc1nc(-c2ccc(S(=O)(=O)N3CCOCC3)cc2)cs1,20.8 µM
16,O=C1Nc2ccc(Br)cc2/C1=C/C(=O)c1ccc2c(c1)OCO2,32.6 µM
17,Cc1cccc(NC2=C(NC(=O)c3ccccc3)C(=O)c3ccccc3C2=O)c1,19.7 µM
18,Cc1ccccc1OCc1n(CC(=O)OC2CC(C)CCC2C(C)C)c2ccccc2[n+]1C (stereo not drawn),15.8 µM
19,N#C/C(=C(/O)c1ccc([N+](=O)[O-])o1)c1nc2ccccc2[nH]1,16.3 µM
20,CN(C)CCNC(=O)/C(=C/c1ccc(-c2ccc(Cl)cc2Cl)o1)NC(=O)c1ccccc1,19.4 µM
21,COc1ccc(-c2cc(-c3ccccc3)[n+](C)c(-c3ccccc3)c2)cc1,21.2 µM

row,Structure (SMILES),AC50
1,CC(=O)Nc1ccc(S(=O)(=O)NC2=C(N3CCN(C)CC3)C(=O)c3ccccc3C2=O)cc1,22.8 µM
2,Cc1ccc(C(=O)N/N=C\c2ccc([N+](=O)[O-])s2)cn1,33.9 µM
3,CC(=O)N1CCc2c(sc(NC(=O)c3ccc([N+](=O)[O-])o3)c2C#N)C1,17.2 µM
4,Cc1cc(C)n(-c2ccc(C(=O)Nc3ccc(C)c(S(=O)(=O)N4CCOCC4)c3)cc2)n1,28.1 µM
5,COc1cc(NC(=O)c2ccc([N+](=O)[O-])o2)ccc1NC(=O)c1cccs1,20.1 µM
6,CN(C)CCCN(C(=O)CCc1ccccc1)c1nc2ccc(Br)cc2s1,16.5 µM
7,CCCCN(C)CC(O)Cn1cc(/C=C/C(=O)c2cccs2)c2ccccc21 (stereo not drawn),18.8 µM
8,CCOc1ccc(-n2c(-c3ccc(Br)cc3)c[n+]3c2CCCCC3)cc1,20.5 µM
9,CN1CCN(C2=C(NS(=O)(=O)c3ccccc3)C(=O)c3ccccc3C2=O)CC1,16.9 µM
10,Cc1ccc(-c2cn(-c3ccc(SC(F)F)cc3)c3[n+]2CCC3)cc1,28 µM
11,Cc1nc2ccccc2n1/N=C/c1ccc([N+](=O)[O-])s1,7.45 µM
12,CC1CC2(C)Oc3ccccc3CC2C(C)C1CNCCCN(C)C (stereo not drawn),16.2 µM
13,Cc1ccc(S(=O)(=O)/N=C2\C(=O)c3ccccc3C([O-])=C2n2cc[n+](CCC(C)C)c2)cc1,15.6 µM
14,COc1cc(/C=C/C(=O)c2ccc3c(c2)OCCO3)cc(Br)c1OCC(=O)N(C)C,18 µM
15,O=C(N/N=C/c1ccc(O)c2ncccc12)c1cccc(Br)c1,25.7 µM
16,O=C(/C=C/c1ccc(Cl)c([N+](=O)[O-])c1)c1ccc(O)cc1,27.3 µM
17,O=C(Nc1ccc(Nc2ccncc2)cc1)c1ccc([N+](=O)[O-])cc1,34.3 µM
18,Cc1ccc(C)c(NC(=O)/C(C#N)=C/c2cn(CC(=O)NCc3ccco3)c3ccccc23)c1,15.2 µM
19,CC(C)Oc1ccc(C(CCNCc2ccc(O)cc2)c2ccccc2)cc1 (stereo not drawn),16.5 µM
20,CCN1/C(=C/c2cc[n+](C)cc2)C=Cc2cc(C)ccc21,25.7 µM
21,O=C(Nc1cccc(Cl)c1)Nc1cc(S(=O)(=O)N2CCCCC2)ccc1Cl,22.9 µM

row,Structure (SMILES),AC50
1,CCCC(=O)N1CCN(c2ccc(NC(=O)c3ccc([N+](=O)[O-])o3)cc2)CC1,24.2 µM
2,COc1cccc(CNCCc2c[nH]c3ccccc23)c1OCc1ccccc1,16.8 µM
3,O=C(N/N=C/c1ccc([N+](=O)[O-])o1)c1ccc(O)cc1,16.7 µM
4,CN(C)CCNC(=O)/C(=C/c1ccc(-c2ccc(Cl)cc2)o1)NC(=O)c1ccccc1,20.4 µM
5,O=[N+]([O-])c1cccc2c(N3CCCC3)ccnc12,15.3 µM
6,O=C(CCl)N(c1ccccc1)C1CCCCC1,32.3 µM
7,CCSCCc1nnc(NC(=O)Nc2cccc(C(F)(F)F)c2)s1,16.6 µM
8,N=c1n(CC(=O)c2ccc(Br)s2)c2ccccc2n1Cc1ccccc1,20 µM
9,O=C(CCl)N1c2ccccc2SCC1c1ccccc1 (stereo not drawn),21.3 µM
10,N=c1n(CCN2CCCC2)c2ccccc2n1CC(O)c1ccc(Cl)c(Cl)c1 (stereo not drawn),16.3 µM
11,N=c1n(CC(=O)c2ccc([N+](=O)[O-])cc2)c2ccccc2n1Cc1ccc(Cl)cc1,16.9 µM
12,COc1ccc(-c2nn(-c3ccccc3)cc2/C=N/N=C(N)N)cc1OC,18 µM
13,O=C1C=C(N(CCO)Cc2ccccc2)c2ccccc2C1=O,13.3 µM
14,CCn1c(/C=C/Nc2ccccc2)[n+](CC)c2cc(Cl)c(Cl)cc21,28.7 µM
15,O=C(NCC1CCCCC1)C1(CC2CC(c3cccc(Br)c3)=NO2)CCNCC1 (stereo not drawn),18 µM
16,CCOC(=O)c1c(C)oc2c(F)c(F)c(F)c(F)c2c1=O,22.7 µM
17,Cc1oc(-c2ccc(Cl)cc2)nc1CN1CCC(C(=O)NCCCN2CCCC(C)C2)CC1 (stereo not drawn),17.1 µM
18,Cn1c(SCC(=O)N/N=C/c2ccc([N+](=O)[O-])s2)nnc1-c1ccccc1,21.5 µM
19,COc1cc(NC(=O)COc2cc(O)c3c(c2)OC(C)(C)CC3=O)cc(OC)c1OC,23.4 µM
20,O=C(CCl)Nc1ccc(Sc2ccc(NC(=O)CCl)cc2)cc1,23.6 µM
21,CCOC(=O)c1ccc(NC(=O)c2ccc(C)c(S(=O)(=O)N3CCOCC3)c2)cc1,17.5 µM

row,Structure (SMILES),AC50
1,CS(=O)(=O)c1ccc(C(=O)OCC(=O)NCc2cccs2)cc1[N+](=O)[O-],29.7 µM
2,Cn1nnnc1Sc1ncnc2scc(-c3ccc(C#N)cc3)c12,18.7 µM
3,O=C(CNc1cccc2ccccc12)N/N=C/c1ccc([N+](=O)[O-])o1,19.9 µM
4,O=C(CCl)Nc1cccc(S(=O)(=O)N2CCCCCC2)c1,11.2 µM
5,CCCCCCCNC(=O)C1(CC2CC(c3ccc(Cl)cc3)=NO2)CCNCC1 (stereo not drawn),18.2 µM
6,COc1ccc2oc(C(=O)Nc3ccc(S(=O)(=O)N(C)C4CCN(C)CC4)cc3)c(C)c2c1,17.5 µM
7,O=C(COc1ccc(Cl)cc1Cl)Nc1ccccn1,19.6 µM
8,Cc1ccc(NC(=O)c2ncn(CCCN[C@H](C)c3cccc4ccccc34)n2)cc1C,25.8 µM
9,CCCCN1CCc2c1nc1ccc(Br)cc1c2N,25.6 µM
10,OC(CNCC(c1ccc(Cl)cc1Cl)c1c[nH]c2ccccc12)c1ccccc1 (stereo not drawn),16.8 µM
11,CCOC(=O)c1c(C)oc2c1C(=O)c1ccccc1C2=O,3.37 µM
12,CS(=O)(=O)c1ncc(Cl)c(C(=O)Nc2ccc3ccccc3c2)n1,18.3 µM
13,CCN(CC)CCNC(=O)c1ccc(NC(=O)c2cccc(S(=O)(=O)N3c4ccccc4CC3C)c2)cc1 (stereo not drawn),22.5 µM
14,Cc1cc(/C=C2\Sc3ccccc3N2C)cc(C)[n+]1CC1CCCO1 (stereo not drawn),10 µM
15,Cc1ccc2c(c1)Oc1ccc(NC(=O)CCl)cc1C(=O)N2,9.65 µM
16,CC(C)=NOc1cc(NC(=O)CCl)cc([N+](=O)[O-])c1,17.4 µM
17,CN(C)S(=O)(=O)c1ccc(-c2csc(N/N=C/c3ccc(O)cc3)n2)cc1,17.5 µM
18,COc1cccc(/C=N/Nc2ccc(C(=O)O)cc2)c1O,19.9 µM
19,CC1=CC2/C=C(\C)CCC(O)C(O)/C=C/C(=O)C23C(=O)NC(CC(C)C)C3C1C (stereo not drawn),15.9 µM
20,CCN(CC)CCC(=O)N1C/C(=C/c2ccccc2)C(=O)/C(=C\c2ccccc2)C1,24 µM
